# Assay results reported in patent publication US11634425B2, “Pharmaceutical compounds” (priority 2019, dated 2023).
# pEC50: −log10 of the molar value. Where two headings read alike, the source gives them in different places.
# What was measured:
# [1] = Cell cytotoxicity (CC50); type: cell-based; conditions: human; mean of at least two experiments
# How it was run: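 Values are means of ≥2 independent runs, rounded to whole units, from 4-parameter variable-slope curve fits. Toxicity measured in Hep-G2 cells run alongside RSV plaque-reduction assays.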
# [2] = in vitro; type: in vitro ADME; conditions: microsomes, pH 7.4, 1 μM compound, 0.5 mg/mL protein, read-out: Liver Microsomal Stability t1/2
# How it was run: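 Pooled liver microsomes (0.5 mg/mL protein) in 0.1 M phosphate pH 7.4 with 1 μM compound and 1 mM NADPH at 37° C., sampled at 0–45 min; minus-NADPH control at 45 min. Acetonitrile quench, LC-MS/MS; t1/2 and CLint from ln peak-area ratio vs time slope.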
# [3] = in vivo; type: in vivo, rat (Sprague Dawley); conditions: male SD rat; for Vd / clearance / Cmax / half-life / AUC(0-t): Sprague Dawley, in vivo; for Cmax / C 8 h: IV 1 mg/kg / PO 10 mg/kg study; for AUC(0-t): read-out: PO AUClast
# Procedure: The pharmacokinetics of compounds were studied in vivo in rats at doses of 1 mg/kg (IV) and 10 mg/kg (PO).
# Male rats [Sprague Dawley (SD)] surgically prepared with a jugular vein cannula were treated with experimental compounds via intravenous administration (IV; n=3; 1 mg/kg) or oral administration (PO; n=3; 10 mg/kg). Compounds were formulated as a solution in 40:60 dimethylacetamide:saline (IV administration) and a solution of 10% DMSO, 20% cremaphor in water (70%) (PO administration). […] Serial blood samples were collected via the cannula at 0.02, 0.08, 0.25, 0.5, 1, 2, 4, 6, 8 and 24 h post IV dosing of compound, and at 0.08, 0.25, 0.5, 1, 2, 4, 6, 8 and 24 h post oral dosing of compound, and plasma was prepared by centrifugation and stored immediately at −80° C. Samples were subsequently thawed, prepared for analysis by protein precipitation with acetonitrile, and analysed by tandem LCMS using electrospray ionisation using a matrix-matched calibration curve. PK parameters were calculated from the resulting data.
# [4] = tested on: RSV A2; assay: RSV plaque reduction assay; type: cell-based, respiratory syncytial virus (RSV); conditions: human respiratory syncytial virus, HepG2, Hep-G2 cells, mean of at least two experiments
# How it was run: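 RSV A2 at 100 PFU/well was premixed with eight compound dilutions and added to confluent Hep-G2 monolayers for 2 h at 37 °C. Cells were then kept 2 days under a DMEM/2% FBS/0.8% CMC overlay containing compound. Immunostained plaques were counted relative to virus controls, and EC50 came from 4-parameter fits, averaged over at least two experiments.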
# [5] = in vitro; type: in vitro ADME; conditions: hepatocytes, 3 μM compound, read-out: Liver Hepatocyte Stability t1/2
# Procedure: Compounds were subjected to the following assays to investigate liver microsomal stability and hepatocyte stability.
# Hepatocyte Incubation: Experimental Procedure
# Cryopreserved pooled hepatocytes were purchased from a reputable commercial supplier and stored in liquid nitrogen prior to use. Williams E media supplemented with 2 mM L-glutamine and 25 mM HEPES and test compound (final substrate concentration 3 μM; final DMSO concentration 0.25%) are pre-incubated at 37° C. prior to the addition of a suspension of cryopreserved hepatocytes (final cell density 0.5×10^6 viable cells/mL in Williams E media supplemented with 2 mM L-glutamine and 25 mM HEPES) to initiate the reaction. The final incubation volume is 500 μL. Two control compounds were included with each species, alongside appropriate vehicle control. The reactions are stopped by transferring 50 μL of incubate to 100 μL acetonitrile containing internal standard at the appropriate time points. Samples were removed at 6 time points (0, 5, 15, 30, 45 and 60 min) over the course of a 60 min experiment. The termination plates are centrifuged at 2500 rpm at 4° C. for 30 min to precipitate the protein. Following protein precipitation, the sample supernatants were combined in cassettes of up to 4 compounds and analysed using generic LC-MS/MS conditions. From a plot of ln peak area ratio (compound peak area/internal standard peak area) against time, the gradient of the line is determined. Subsequently, half-life (t1/2) and intrinsic clearance (CLint) were calculated.
# [6] = IV 1 mg/kg, read-out: IV t1/2 (converted)
# [7] = PO 10 mg/kg, read-out: PO t1/2 (converted)
Structure (SMILES),CC50 [1] [nM],half-life at 1 μM ([2]; dog) [h],half-life at 1 μM ([2]; human) [h],half-life at 1 μM ([2]; rat) [h],Vd ([3]; IV 1 mg/kg) [L/kg],clearance ([3]; IV 1 mg/kg) [mL/min/kg],Cmax [3] [ng/mL],"half-life [3, 6] [h]",AUC(0-t) ([3]; PO 10 mg/kg) [ng·h/mL],C 8 h [3] [ng/mL],"F ([3]; IV 1 mg/kg, PO 10 mg/kg) [%]",pEC50 [4],half-life at 3 μM ([5]; dog) [h],half-life at 3 μM ([5]; human) [h],half-life at 3 μM ([5]; rat) [h],"half-life [3, 7] [h]"
"O=C(N[C@H]1N=C(c2ccccc2)c2ccccc2NC1=O)c1c(-c2ccccc2F)nn2cccnc12 [Example 2, 2-(2-Fluorophenyl)-N-[(3S)-2-oxo-5-phenyl-1,3-dihydro-1,4-benzodiazepin-3-yl]pyrazolo[1,5-a]pyrimidine-3-carboxamide]",> 25000,7.38,3.08,> 2.33,1.3,5,2410,3.1,34200,2290,103,7.41,1.12,145,3.95,–
"Cc1ccc(-c2nn3cccnc3c2C(=O)N[C@H]2N=C(c3ccccc3)c3cccc(F)c3NC2=O)cn1 [Example 50, N-[(3S)-9-fluoro-2-oxo-5-phenyl-1,3-dihydro-1,4-benzodiazepin-3-yl]-2-(6-methylpyridin-3-yl)pyrazolo[1,5-a]pyrimidine-3-carboxamide]",> 25000,13.3,13.4,3.88,0.94,13,2040,1.2,20000,1003,152,7.00,> 3.1,> 3.1,96.7,2.4
CCc1ccc(-c2nn3cccnc3c2C(=O)N[C@H]2N=C(c3ccccc3)c3cccc(F)c3NC2=O)cn1 [Example 55],> 25000,1.87,2.93,1.01,1.2,14.3,1420,2,14700,753,113,7.35,2.43,> 3.1,1.43,2.5
